Results reported in patent US10351915B2 (Berg LLC, priority 2009, dated 2019).
Read-outs that look alike come from different tables or passages of the source.

Assays:
SKMEL-28 cells = test: 2-D gel electrophoresis proteomic analysis; assay type: cell-based
Protocol: For isolation of proteins, cells were washed three times with 5 mL of ice cold PBS at a pH of 7.4. The cells were then scraped in 3 mL of PBS, pelleted by centrifuge, and re-suspended in a lysis buffer at pH 7.4 (80 mM TRIS-HCl, 1% SDS, with protease and phosphotase inhibitors). Protein concentrations were quantified using the BCA method.
The gels were run in duplicate.
The first experimental set processed and evaluated by Western blot and 2-D gel electrophoresis was the skin cancer cell line SKMEL-28.
A comparative analysis of 943 spots across all twenty-four gels was performed, comparing the control sample against all of the treated samples. The analysis included the identification of spot changes over the time course due to increase, decrease, or post-translational modification.
The analysis found thirty-two statistically significant differential spot changes. […] The characterized peptides were searched against protein databases with Mascot and MSRAT software analysis to identify the protein (Table 2).

SKMEL-28 mitochondria = test: 2-D gel electrophoresis of mitochondria enriched samples; assay type: cell-based
SCC cells = test: Real-time PCR Apoptosis Array; assay type: cell-based
From the text: The control cells were untreated cells.
RNA was quantified by measuring Optical Density at 260 nm.

Caspase 3 = test: Western blot, Caspase 3 levels; assay type: cell-based, human; conditions: PACA2, 5g glucose, amount 50
Protocol: The blots were stripped by incubating for 30 minutes with methanol, followed by two 10 minute washes with TBS-T, then 30 minutes of incubation with Stripping buffer at 50 deg C., and followed by two washes with 100 ml or more of TBS-T for 30′ each. The 2 blots were scanned in laser scanner to check for complete stripping. The blots were activated with methanol for 5 seconds, washed with water for 5 minutes, and TBST for 15 minutes. The blots were blocked for 1 hour with 5% blocking reagent in TBS-T at room temperature and then washed 3 times with TBS-T (1×-15′; 2×5′ each) and probed with the antibody for Caspase 3 in 5% BSA (Santacruz Biotechnology # sc7272) at 1:200 dilutions) overnight at 4 deg C. with shaking. After the overnight incubation with primary antibody for Caspase 3, the membranes were washed 3 times with TBS-T (1×-15′; 2×5′ each) and probed with the secondary antibody (antimouse; 1:10,000 dilution) for 1 h on the orbital tilting shaker at room temperature. […]
The levels of Caspase 3 and actin were determined by probing the blots successively with primary antibodies for Caspase 3 and actin, essentially as described above. […]

HASMC cells = test: Extracellular acidification rate (ECAR), SeaHorse XF analyzer; assay type: cell-based, human; conditions: hyperglycemic, hypoxic conditions
From the text: (SeaHorse Biosciences Inc, North Billerica, Mass.).
In this experiment, the OCR and extracellular acidification rate (ECAR) in normal cells lines were obtained in the presence and absence of CoQ10 to determine baseline values. It was observed that in its native nutrient environment, the basal OCR rates in normal cells lines are different, and are usually a function of the physiological roles of the cells in the body.
In Table 128 the measured baseline ECAR values (mpH/min) in HASMC were higher compared to that of HDFa. Induction of hypoxic conditions caused an increase in ECAR most likely associated with intracellular hypoxia induced acidosis secondary to increased glycolysis.

pancreatic cancer = conditions: intravenous

COC1=C(OC)C(=O)C(C/C=C(\C)CC/C=C(\C)CC/C=C(\C)CC/C=C(\C)CC/C=C(\C)CC/C=C(\C)CC/C=C(\C)CC/C=C(\C)CC/C=C(\C)CCC=C(C)C)=C(C)C1=O [Q10, Coenzyme Q10]
Expression (2D spot) (SKMEL-28 cells; 3 hr, 50 uM Q10): down
Expression (2D spot) (SKMEL-28 cells; 3 hr, 100 uM Q10): down
Expression (2D spot) (SKMEL-28 cells; 6 hr, 50 uM Q10, protein EIF6): up
Expression (2D spot) (SKMEL-28 cells; 6 hr, 50 uM Q10, protein LMNB1): down
Expression (2D spot) (SKMEL-28 cells; 6 hr, 100 uM Q10, protein EIF6): down
Expression (2D spot) (SKMEL-28 cells; 6 hr, 100 uM Q10, protein VIM): up
Expression (2D spot) (SKMEL-28 cells; 12 hr, 50 uM Q10, protein LGALS1): down
Expression (2D spot) (SKMEL-28 cells; 12 hr, 50 uM Q10, protein PDCD6IP): up
Expression (2D spot) (SKMEL-28 cells; 12 hr, 100 uM Q10): up
Expression (2D spot) (SKMEL-28 cells; 24 hr, 50 uM Q10): down
Response, direction (SKMEL-28 mitochondria; 100 μM Q10, at 6 hr, protein spot 372): Up
Response (SKMEL-28 mitochondria; 100 μM Q10, at 19 hr): Up only at 19 hr
Response (SKMEL-28 mitochondria; 100 μM Q10, at 48 hr): Up at 48 hr
Regulation (mRNA) (SCC cells; 100 μM Q10, at 6 hours): Down regulated at 6 hours
Regulation (mRNA) (SCC cells; 100 μM Q10, at 24 hours, BAX mRNA): Up regulated at 24 hours.
Regulation (mRNA) (SCC cells; 100 μM Q10, at 24 hours, BNIP3 mRNA): Down regulated at 24 hours.
Caspase 3 Normalized Volume (48 h) (Caspase 3): 701
ECAR rates (HASMC cells): downward trend of ECAR rates
animals alive (pancreatic cancer; 5 mg/kg (Group D), after 28 days): most of the animals
animals alive (pancreatic cancer; 10 mg/kg (Group E), after 28 days): most of the animals
animals alive (pancreatic cancer; 25 mg/kg (Group F), after 28 days): most of the animals
animals alive (pancreatic cancer; 50 mg/kg (Group G), at 28 days): all of the animals
